Test results published in patent US8399495B2, “Talarazole metabolites” (Stiefel Laboratories, Inc., priority 2006, dated 2013).

Experiments:
[1] = Metabolite radioprofiling of plasma, urine and feces, mouse; assay type: in vivo; settings: for Feces % Dose as the component / Plasma 0-24 h AUC (% Sample) / Plasma 0-24 h AUC of the radioactive component / Urine % Dose as the component: mouse (5 mg/kg) oral 14C-talarozole; for Urine % Dose as the component: urine 0-24 h; for Plasma 0-24 h AUC, total radioactivity: mouse (5 mg/kg)
Procedure: (§1) Male and female CD-1 mice (19-29 g, n=3/sex/timepoint for blood sampling, n=3/sex for mass balance), Sprague Dawley rats (0.205-0.237 kg, n=3/sex/timepoint for blood sampling, n=3/sex for mass balance) and beagle dogs (7-12 kg, n=3) were given a single oral dose of ^14C-labeled talarozole in 20% hydroxyl propyl B-cyclodextrin at 5 mg/kg. Healthy human male volunteers (76.6-107.9 kg, n=5) were dosed with a single oral dose of 4 mg ^14C-labeled rambazole in ethanol. Blood samples were collected at selected timepoints after dosing and plasma was prepared. Urine and feces were collected for 2, 7 and 8 days. For the human study, up to 288 hours post-dose and semen samples were obtained 2 and 4 hours post-dose. Radioactivity in various matrices were measured by liquid scintillation counting (LSC). Select plasma, urine and fecal samples were subjected to metabolite radioprofiling and characterization, and in the human study, semen samples. Metabolite radioprofiling was accomplished using HPLC with fraction collection followed by solid scintillation counting (Packard TopCount—see representative HPLC run data below). Radioactivity peaks were integrated and the percent distribution of individual metabolites in each sample was determined. Metabolite characterization and identification were accomplished by LC/MS (Finnigan MAT LCQ in positive or negative ESI mode) in conjunction with an appropriate radioactive monitor (RAM). For all species, plasma, urine and fecal samples were pooled across animals and analyzed. Plasma was analyzed at several time-points out to 24 hours. Urine was analyzed over one time-interval (0-24 hours for mouse, 0-48 hours for rat, 0-72 hours for dog, and for in the human study, 0-12, 12-24, 24-48, 0-48 hours. Feces was analyzed over 2-3 time intervals (0-24 and 24-48 hours for mouse and rat; 0-24, 24-48, and 48-72 hours for male dogs; and 24-48, 48-72, and 72-96 hours for female dogs). In the human study, feces were analyzed for 0-48, 48-96, 96-144, 144-192, 192-288, 0-144, 144-288 and 0-288 hours. PK parameters for ^14C-labeled talarozole radioactivity was determined from the mean (mouse and rat) or individual (dog and human) plasma concentration versus time data. PK parameter values were determined by non-compartmental methods using WinNonlin™. • HPLC data for separations described in Example 1: • LC system: Waters 2695 Separations Module • Analytic column: C18 column, 4.6×150 mm, 3 μm • Flow rate: 1.0 mL/min • Mobile phase A: 2% HCOOH in H2O (pH 3.2) • Mobile phase B: CH3CN • Gradient: […]

[2] = Metabolite radioprofiling of plasma, urine and feces, rat; assay type: in vivo; settings: for Feces % Dose as the component / Plasma 0-24 h AUC (% Sample) / Plasma 0-24 h AUC of the radioactive component / Urine % Dose as the component: rat (5 mg/kg) oral 14C-talarozole; for Urine % Dose as the component: urine 0-48 h; for Plasma 0-24 h AUC, total radioactivity: rat (5 mg/kg)
Procedure: as §1

IP-10 = experiment: Suppression of IP-10 production by IFNγ-activated human epidermal keratinocytes; assay type: cell-based
Description: Talarozole Metabolites for Suppression of IP-10 Production by IFNγ-Activated Human Epidermal Keratinocytes
IP-10, a member of the CXC subfamily of chemokines, attracts T-lymphocytes and natural killer cells. […] In particular, epidermal keratinocytes of psoriatic lesions express elevated levels of IP-10. Suppression of IP-10 expression by activated keratinocytes may represent a novel target for therapeutic intervention of inflammatory skin disorders.

[3] = Pharmacokinetics of radioactivity in plasma after oral 14C-labeled talarozole, dog; assay type: in vivo; settings: single oral 5 mg/kg; for AUC0-t: 0-168 h
Description: (§2) Mouse, rat, dog and human were the species used for the safety evaluations of talarozole. More specifically, the disposition of ^14C-labeled talarozole was examined in mice, rats, dogs and humans after oral administration to provide information regarding the absorption, metabolism and excretion of talarozole.
as §1, with “Metabolite characterization and identification were accomplished by LC/MS (Finnigan MAT LCQ in positive or negative ESI mode) in conjunction with an appropriate radioactive monitor (RAM).” left out

[4] = Excretion of radioactivity (mass balance), mouse; assay type: in vivo; settings: 0-48 h, oral 5 mg/kg; for % in Feces (percent of dose recovered, total radioactivity) / % in Urine (percent of dose recovered, total radioactivity): 5 mg/kg
Description: as §2, §1

[5] = Metabolite radioprofiling of plasma, urine and feces, dog; assay type: in vivo; settings: for Feces % Dose as the component / Plasma 0-24 h AUC (% Sample) / Plasma 0-24 h AUC of the radioactive component: dog (5 mg/kg) oral 14C-talarozole; for Plasma 0-24 h AUC, total radioactivity: dog (5 mg/kg)
Procedure: as §1

[6] = Pharmacokinetics of radioactivity in plasma after oral 14C-labeled talarozole, rat; assay type: in vivo; settings: single oral 5 mg/kg; for AUC0-t: 0-48 h
Description: as §2
as §1, with “Metabolite characterization and identification were accomplished by LC/MS (Finnigan MAT LCQ in positive or negative ESI mode) in conjunction with an appropriate radioactive monitor (RAM).” left out

[7] = Metabolite radioprofiling of plasma, urine, feces and semen, human; settings: in vivo
Procedure: as §1

[8] = test system: vaginal keratinization induced by estrogenic treatment; experiment: Inhibition of vaginal keratinization induced by estrogenic treatment in ovariectomized rats; assay type: in vivo, rat; settings: ovariectomized rats with estrogenic treatment; M4 oral during 3 days
Description: Effects on Epithelial Differentiation in Rat Vagina: Inhibition of Vaginal Keratinization Induced by Estrogenic Treatment in Ovariectomized Rats by Oral Administration of Talarozole Metabolite M4
This animal model is based on the observation that retinoic acid (RA) suppresses the keratinization process in the stratified squamous epithelium of the vagina induced by estrogenic treatment in ovariectomized rats (Sietsema & DeLuca, 1982; Geiger & Weiser, 1989).

[9] = Pharmacokinetics of radioactivity in plasma after oral 14C-labeled talarozole, human; assay type: in vivo; settings: male, single oral 4 mg
Description: as §2
Male and female CD-1 mice (19-29 g, n=3/sex/timepoint for blood sampling, n=3/sex for mass balance), Sprague Dawley rats (0.205-0.237 kg, n=3/sex/timepoint for blood sampling, n=3/sex for mass balance) and beagle dogs (7-12 kg, n=3) were given a single oral dose of ^14C-labeled talarozole in 20% hydroxyl propyl B-cyclodextrin at 5 mg/kg. […] Radioactivity in various matrices were measured by liquid scintillation counting (LSC). […] Radioactivity peaks were integrated and the percent distribution of individual metabolites in each sample was determined. […] For all species, plasma, urine and fecal samples were pooled across animals and analyzed. Plasma was analyzed at several time-points out to 24 hours. […] PK parameter values were determined by non-compartmental methods using WinNonlin™. • HPLC data for separations described in Example 1: • LC system: Waters 2695 Separations Module • Analytic column: C18 column, 4.6×150 mm, 3 μm • Flow rate: 1.0 mL/min • Mobile phase A: 2% HCOOH in H2O (pH 3.2) • Mobile phase B: CH3CN • Gradient: […]

[10] = Excretion of radioactivity (mass balance), rat; assay type: in vivo; settings: 0-168 h, oral 5 mg/kg; for % in Feces (percent of dose recovered, total radioactivity) / % in Urine (percent of dose recovered, total radioactivity): 5 mg/kg
Description: as §2, §1

[11] = female, listed as 14C-Talarozole
[12] = female, listed as 14C-labeled talarozole
[13] = male, listed as 14C-labeled talarozole

CCC(CC)[C@H](c1ccc(Nc2nc3ccccc3s2)cc1)n1cncn1 [Talarozole, (R)—N-[4-[2-ethyl-1-(1H-1,2,4-triazole-1-yl)butyl]phenyl]-2-benzothiazolamine]
Feces % Dose as the component ([1]; female): 7.04 % Dose | Plasma 0-24 h AUC (% Sample) ([1]; female): 21.48% | Plasma 0-24 h AUC of the radioactive component ([1]; female): 1420.2 ng·h/g | Urine % Dose as the component ([1]; female): No unchanged ^14C-labeled talarozole was detected | Feces % Dose as the component ([1]; male): 6.11 % Dose | Plasma 0-24 h AUC (% Sample) ([1]; male): 15.15% | Plasma 0-24 h AUC of the radioactive component ([1]; male): 1377.5 ng·h/g | Urine % Dose as the component ([1]; male): No unchanged ^14C-labeled talarozole was detected | Plasma 0-24 h AUC, total radioactivity ([1]; female): 66113.0 ng*hr/g F | Plasma 0-24 h AUC, total radioactivity ([1]; male): 9092.5 ng·h/g/M | Feces % Dose as the component ([2]; female): 4.60 % Dose | Plasma 0-24 h AUC (% Sample) ([2]; female): 39.17% | Plasma 0-24 h AUC of the radioactive component ([2]; female): 3523.2 ng·h/g | Urine % Dose as the component ([2]; female): 1.90 % Dose | Feces % Dose as the component ([2]; male): 5.34 % Dose | Plasma 0-24 h AUC (% Sample) ([2]; male): 11.05% | Plasma 0-24 h AUC of the radioactive component ([2]; male): 778.38 ng·h/g | Urine % Dose as the component ([2]; male): 0.10 % Dose | Plasma 0-24 h AUC, total radioactivity ([2]; female): 8995.6 ng*hr/g F | Plasma 0-24 h AUC, total radioactivity ([2]; male): 7045.6 ng·h/g/M | IP-10 expression (IP-10): down regulate dose-dependently | AUC0-∞ ([3]; female): 21902 hr-ng equiv/g | AUC0-t ([3]; female): 21388 hr-ng equiv/g | AUC0-∞ ([3]; male): 19970 hr-ng equiv/g | AUC0-t ([3]; male): 19555 hr-ng equiv/g | % in Cage Rinse (percent of dose recovered) ([4]; female): 0.8% | Total % Recovered ([4]; female): 95.4% | % in Feces (percent of dose recovered, total radioactivity) [4, 11]: 91.59 F % | % in Urine (percent of dose recovered, total radioactivity) [4, 11]: 2.96 F % | % in Feces (percent of dose recovered, total radioactivity) [4, 12]: 91.6% | % in Cage Rinse (percent of dose recovered) ([4]; male): 4.4% | Total % Recovered ([4]; male): 91.4% | % in Feces (percent of dose recovered, total radioactivity) ([4]; male, listed as 14C-Talarozole): 82.70 M % | % in Urine (percent of dose recovered, total radioactivity) ([4]; male, listed as 14C-Talarozole): 4.27 M % | % in Feces (percent of dose recovered, total radioactivity) [4, 13]: 82.7% | Feces % Dose as the component ([5]; female): 1.59 % Dose | Plasma 0-24 h AUC (% Sample) ([5]; female): 23.20% | Plasma 0-24 h AUC of the radioactive component ([5]; female): 4228.0 ng·h/g | Feces % Dose as the component ([5]; male): 1.22 % Dose | Plasma 0-24 h AUC (% Sample) ([5]; male): 24.24% | Plasma 0-24 h AUC of the radioactive component ([5]; male): 4132.9 ng·h/g | Plasma 0-24 h AUC, total radioactivity ([5]; female): 18225 ng*hr/g F | Plasma 0-24 h AUC, total radioactivity ([5]; male): 17047 ng·h/g/M | AUC0-∞ ([6]; female): 7810 hr-ng equiv/g | AUC0-t ([6]; female): 7670 hr-ng equiv/g | AUC0-∞ ([6]; male): 6960 hr-ng equiv/g | AUC0-t ([6]; male): 6720 hr-ng equiv/g | Plasma 0-24 h AUC of the radioactive component ([7]; human, po, 0.067 mg/kg): 12.74 ng·h/g | Semen (radioactive component in semen samples) [7]: minor radioactive components | Urine % Dose as the component [7]: not found | Plasma 0-24 h AUC, total radioactivity ([7]; male, human, 0.067 mg/kg): 211.3 ng·h/g | Plasma 0-24 h AUC (% Sample), % of total plasma radioactivity ([7]; male, human, po, 0.067 mg/kg): 6.03% | ED50-value for complete suppression (keratinization score=0) [8]: 1.0 mg/kg/day | AUC0-∞ [9]: 301 hr-ng equiv/g | AUC0-t ([9]; 0-48 h): 269 hr-ng equiv/g | % in Cage Rinse (percent of dose recovered) ([10]; female): 3.88% | Total % Recovered ([10]; female): 95.4% | % in Feces (percent of dose recovered, total radioactivity) [10, 11]: 77.57 F % | % in Urine (percent of dose recovered, total radioactivity) [10, 11]: 10.07 F % | % in Feces (percent of dose recovered, total radioactivity) [10, 12]: 77.5% | % in Urine (percent of dose recovered, total radioactivity) [10, 12]: 10.1% | % in Cage Rinse (percent of dose recovered) ([10]; male): 4.01% | Total % Recovered ([10]; male): 95.2% | % in Feces (percent of dose recovered, total radioactivity) ([10]; male, listed as 14C-Talarozole): 77.53 M % | % in Urine (percent of dose recovered, total radioactivity) ([10]; male, listed as 14C-Talarozole): 6.33 M % | % in Feces (percent of dose recovered, total radioactivity) [10, 13]: 77.5% | % in Urine (percent of dose recovered, total radioactivity) [10, 13]: 6.3%
